Data reported in patent US20170240535A1, “HDAC1/2 INHIBITORS FOR THE TREATMENT OF NEURODEGENERATIVE AND/OR COGNITIVE DISORDERS” (Regenacy Pharmaceuticals, LLC, priority 2016, published 2017).

Tests used:
[1] = Pharmacokinetics in plasma and brain after IV administration; assay type: in vivo; conditions: IV 1 mg/kg, male C57BL/6 mice
Method: Male C57Bl/6 mice were fasted overnight. Compounds of the invention were dissolved in dimethyl acetamide at 10 times the final concentration, then Solutol HS 15 (BASF) was added to a final concentration of 10%. Finally 80% saline was added and vortexed to achieve a clear solution. Fifteen animals were injected via the tail vein with 1 mg/kg compound. Blood was collected via retro orbital puncture into K2EDTA tubes at 5 minutes, 15 minutes, 30 minutes, 1 hour, 2 hours, 4 hours, 8 hours and 24 hours after dosing. The blood was centrifuged at 2000 g for 5 minutes at 4° C. to obtain plasma. The plasma was extracted with acetonitrile and the level of compound was analyzed by LC/MS/MS. The level of compound in plasma was calculated from a standard curve in mouse plasma. For brain levels, animals were sacrificed at 5 minutes, 15 minutes, 1 hour, 4 hours and 24 hours. Brains were removed and homogenized in acetonitrile and extracted. The level of compound in brain was calculated from a standard curve in mouse brain tissue. The IV clearance and area under the curve were calculated using WinNonLin software. The ratio of area under the curve for plasma and brain samples was calculated to produce the brain/plasma ratio.

[2] = Pharmacokinetics of Compound 1 in plasma and brain after IP and PO administration (discrete PK); assay type: in vivo; conditions: male C57BL/6 mice; for Kp / Cmax / Tmax / half-life / AUC(0-inf) / AUC(0-t): mouse; for Kp: brain/plasma, read-out: AUCbrain/AUCplasma; for half-life: read-out: Terminal t1/2 (converted)
Method: Male C57Bl/6 mice were fasted overnight. Compound 1 was dissolved in 20% HydroxyPropyl-β-Cyclodextran in water. Fifteen animals per experimental arm were dosed by intraperitoneal injection or by oral gavage. Blood was collected via retro orbital puncture into K2EDTA tubes at 5 minutes, 15 minutes, 30 minutes, 1 hour, 2 hours, 4 hours, 8 hours and 24 hours after dosing. The blood was centrifuged at 2000 g for 5 minutes at 4° C. to obtain plasma. The plasma was extracted with acetonitrile and the level of compound was analyzed by LC/MS/MS. The level of compound in plasma was calculated from a standard curve in mouse plasma. For brain levels, animals were sacrificed at 15 minutes, 1 hour, 4 hours, 8 hours and 24 hours. Brains were removed and homogenized in acetonitrile and extracted. The level of compound in brain was calculated from a standard curve in mouse brain tissue. The maximum concentration, half-life and area under the curve were calculated using WinNonLin software. The ratio of area under the curve for plasma and brain samples was calculated to produce the brain/plasma ratio.

[3] = biological target: T1, HDAC2 (Homo sapiens, UniProt Q92769); test: HDAC enzyme assay, HDAC2; assay type: biochemical; conditions: enzyme and compound incubated 24 hours at room temperature
T1 construct: purchased BPS Biosciences
T1 sequence (Q92769 whole entry): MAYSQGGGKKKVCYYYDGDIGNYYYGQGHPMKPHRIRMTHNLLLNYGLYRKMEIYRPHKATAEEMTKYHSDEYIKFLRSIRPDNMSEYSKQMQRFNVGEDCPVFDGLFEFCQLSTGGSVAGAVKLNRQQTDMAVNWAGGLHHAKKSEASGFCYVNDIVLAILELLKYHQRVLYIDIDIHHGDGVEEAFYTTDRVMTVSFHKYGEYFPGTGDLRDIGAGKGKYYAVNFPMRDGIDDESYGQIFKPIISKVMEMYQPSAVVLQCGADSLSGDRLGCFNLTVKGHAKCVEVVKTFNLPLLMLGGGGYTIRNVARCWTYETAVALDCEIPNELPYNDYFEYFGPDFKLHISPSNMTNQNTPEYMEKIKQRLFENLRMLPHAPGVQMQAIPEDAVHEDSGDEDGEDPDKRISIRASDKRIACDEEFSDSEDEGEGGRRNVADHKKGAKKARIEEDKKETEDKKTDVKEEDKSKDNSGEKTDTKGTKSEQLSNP
Method: (§1) Compounds for testing were diluted in DMSO to 50 fold the final concentration and a ten point three fold dilution series was made. The compounds were diluted in assay buffer (50 mM HEPES, pH 7.4, 100 mM KCl, 0.001% Tween-20, 0.05% BSA, 20 μM TCEP) to 6 fold their final concentration. The HDAC enzymes (purchased from BPS Biosciences) were diluted to 1.5 fold their final concentration in assay buffer. The tripeptide substrate and trypsin at 0.05 μM final concentration were diluted in assay buffer at 6 fold their final concentration. The final enzyme concentrations used in these assays were 3.3 ng/ml (HDAC1), 0.2 ng/ml (HDAC2) and 0.08 ng/ml (HDAC3). The final substrate concentrations used were 16 μM (HDAC1), 10 μM (HDAC2) and 17 μM (HDAC3). Five μl of compound and 20 μl of enzyme were added to wells of a black, opaque 384 well plate in duplicate. Enzyme and compound were incubated together at room temperature for 24 hours. Five μl of substrate was added to each well, the plate was shaken for 60 seconds and placed into a Victor 2 microtiter plate reader. The development of fluorescence was monitored for 60 min and the linear rate of the reaction was calculated. The IC50 was determined using Graph Pad Prism by a four parameter curve fit.

[4] = biological target: T2, HDAC3 (Homo sapiens, UniProt O15379); test: HDAC enzyme assay, HDAC3; assay type: biochemical; conditions: enzyme and compound incubated 24 hours at room temperature
T2 construct: purchased BPS Biosciences
T2 sequence (O15379 whole entry): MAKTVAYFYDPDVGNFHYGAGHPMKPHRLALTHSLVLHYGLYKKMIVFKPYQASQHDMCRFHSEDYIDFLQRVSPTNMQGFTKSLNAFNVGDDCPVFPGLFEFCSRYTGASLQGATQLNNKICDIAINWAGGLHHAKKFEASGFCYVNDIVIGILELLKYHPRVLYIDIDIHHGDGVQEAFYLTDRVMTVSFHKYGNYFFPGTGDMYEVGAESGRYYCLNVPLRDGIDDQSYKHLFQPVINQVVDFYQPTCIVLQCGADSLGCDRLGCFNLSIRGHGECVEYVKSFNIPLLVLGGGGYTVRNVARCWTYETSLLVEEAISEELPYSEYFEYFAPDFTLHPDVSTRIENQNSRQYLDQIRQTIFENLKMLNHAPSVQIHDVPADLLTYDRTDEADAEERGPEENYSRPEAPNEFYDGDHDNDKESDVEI
T2 sequence (Q9Y618 395-489 partner limits assumed): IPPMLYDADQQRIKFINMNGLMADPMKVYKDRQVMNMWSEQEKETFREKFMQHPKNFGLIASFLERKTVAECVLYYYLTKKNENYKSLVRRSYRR
Method: as §1

[5] = tested on: aged mice; test: Morris Water Maze, young and aged mice; assay type: in vivo
Method: The ability of HDAC1/2 inhibitor Compound 1 to improve cognitive deficits in aged mice was tested by InterVivo Solutions (Toronto, Canada). Young (3 months old) and aged (18 months old) mice were compared in a Morris Water Maze to measure differences in learning and memory.
Mice were first placed in a pool of water and trained to swim to a visible flagged platform (the cued task). The mice received 3 trails per day for 5 days and the time it took for the mice to find the platform was timed. Young mice and aged mice performed equally well at this task, indicating there was no difference in swimming speed between the two cohorts of mice.
Next, mice were trained in a place task, in which the platform is submerged and hidden with flags to indicate the fixed location of the platform. The mice were trained for 4 days with 3 trials per day.

[6] = young mice (3 months old), 10 mg/kg/day, 4 weeks

## Nc1ccc(-c2ccccc2)cc1NC(=O)c1cc2ccc(N3CCNCC3)cc2cn1 [Compound 1]
[1]
  brain penetrance (from brain/plasma AUC ratios): highly brain penetrant
[1]; brain
  AUCINF: 12187 ng·h/g
  AUClast: 10505 ng·h/g
[1]; mouse, brain/plasma, read-out: AUCbrain/AUCplasma
  Kp: 4.05
[1]; mouse, brain
  Cmax: 675 ng/g
  Tmax: 1 h
  half-life: 9.12 h
[1]; mouse, plasma, PK cassette
  AUC(0-inf): 3010 ng·h/mL
  AUC(0-t): 2680 ng·h/mL
  MRT inf: 10.4 h
  clearance: 5.55 mL/min/kg
  half-life: 7.8 h
[1]; mouse, plasma, PK cassette, read-out: Vss
  Vd: 3.47 L/kg
[2]; IP or PO, 3 and 10 mg/kg
  brain penetrance (from brain/plasma AUC ratios): highly brain penetrant
[2]; brain, IP 3 mg/kg
  AUCINF-brain: 21015 ng·h/g
  AUClast-brain: 19737 ng·h/g
  Cmax: 1490 ng/g
  Tmax: 4 h
  half-life: 5.87 h
[2]; brain, IP 10 mg/kg
  AUCINF-brain: 87609 ng·h/g
  AUClast-brain: 78978 ng·h/g
  Cmax: 5320 ng/g
  Tmax: 4 h
  half-life: 7.13 h
[2]; brain, PO 3 mg/kg
  AUCINF-brain: 10651 ng·h/g
  AUClast-brain: 10019 ng·h/g
  Cmax: 743 ng/g
  Tmax: 4 h
  half-life: 5.8 h
[2]; brain, PO 10 mg/kg
  AUCINF-brain: 58481 ng·h/g
  AUClast-brain: 53716 ng·h/g
  Cmax: 3650 ng/g
  Tmax: 8 h
  half-life: 6.76 h
[2]; IP 3 mg/kg
  Kp: 15.1
[2]; IP 10 mg/kg
  Kp: 15.9
[2]; PO 3 mg/kg
  Kp: 6.81
[2]; PO 10 mg/kg
  Kp: 10.8
[2]; plasma, IP 3 mg/kg
  AUC(0-inf): 1320 ng·h/mL
  AUC(0-t): 1310 ng·h/mL
  Cmax: 318 ng/mL
  Tmax: 0.5 h
  half-life: 3.88 h
[2]; plasma, IP 10 mg/kg
  AUC(0-inf): 5040 ng·h/mL
  AUC(0-t): 4960 ng·h/mL
  Cmax: 1020 ng/mL
  Tmax: 0.25 h
  half-life: 4.2 h
[2]; plasma, PO 3 mg/kg
  AUC(0-inf): 1480 ng·h/mL
  AUC(0-t): 1470 ng·h/mL
  Cmax: 135 ng/mL
  Tmax: 2 h
  half-life: 3.44 h
[2]; plasma, PO 10 mg/kg
  AUC(0-inf): 5060 ng·h/mL
  AUC(0-t): 4990 ng·h/mL
  Cmax: 561 ng/mL
  Tmax: 1 h
  half-life: 4.08 h
[3]
  IC50: 13 nM
[4]
  IC50: 84 nM
[5]; aged mice (18 months old), 10 mg/kg/day, 4 weeks
  learning rate in place task: learn at a rate greater than the young untreated cohort
[5]; young and aged mice, 10 mg/kg/day for 4 weeks
  performance in place test vs corresponding untreated mice: perform better in the place test than the corresponding untreated mice
[5]; [6]
  learning rate in place task: dramatic improvement in learning rate
  reduction in escape latency as compared to untreated mice, place task: 25%
